Reference: the supplement of paper PMC11451515

Tested on: P12-Ichikawa
Test: cell viability relative to DMSO control; higher = less cytotoxic
Conditions: 48 h
Method in brief: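 Library compounds in DMSO were pin-dosed in an 11-point threefold series (47 μM to 0.79 nM) onto leukemia cells in 1536-well plates (5 μl). Plates held 500 cells/well of NOMO1 or SEM or 1000 cells/well of P12-Ichikawa, each adapted for at least four passages in each medium. Luminescence was read with CellTiter-Glo One after 48 h at 37°C. Viability means the per-plate percentage relative to DMSO wells, using cell-free wells as background.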

[1] = HPLM + 10% dialyzed FBS, 0.000781 µM
[2] = HPLM + 10% dialyzed FBS, 0.00234 µM
[3] = HPLM + 10% dialyzed FBS, 0.00702 µM
[4] = HPLM + 10% dialyzed FBS, 0.0211 µM
[5] = HPLM + 10% dialyzed FBS, 0.0632 µM
[6] = HPLM + 10% dialyzed FBS, 0.19 µM
[7] = HPLM + 10% dialyzed FBS, 0.569 µM
[8] = HPLM + 10% dialyzed FBS, 1.71 µM
[9] = HPLM + 10% dialyzed FBS, 5.12 µM
[10] = HPLM + 10% dialyzed FBS, 15.4 µM
[11] = HPLM + 10% dialyzed FBS, 46.1 µM
[12] = RPMI 5 mM glucose + 10% FBS, 0.000781 µM
[13] = RPMI 5 mM glucose + 10% FBS, 0.00234 µM
[14] = RPMI 5 mM glucose + 10% FBS, 0.00702 µM
[15] = RPMI 5 mM glucose + 10% FBS, 0.0211 µM
[16] = RPMI 5 mM glucose + 10% FBS, 0.0632 µM
[17] = RPMI 5 mM glucose + 10% FBS, 0.19 µM
[18] = RPMI 5 mM glucose + 10% FBS, 0.569 µM
[19] = RPMI 5 mM glucose + 10% FBS, 1.71 µM
[20] = RPMI 5 mM glucose + 10% FBS, 5.12 µM
[21] = RPMI 5 mM glucose + 10% FBS, 15.4 µM
[22] = RPMI 5 mM glucose + 10% FBS, 46.1 µM
[23] = RPMI 5 mM glucose + 10% dialyzed FBS, 0.000781 µM
[24] = RPMI 5 mM glucose + 10% dialyzed FBS, 0.00234 µM
[25] = RPMI 5 mM glucose + 10% dialyzed FBS, 0.00702 µM
[26] = RPMI 5 mM glucose + 10% dialyzed FBS, 0.0211 µM
[27] = RPMI 5 mM glucose + 10% dialyzed FBS, 0.0632 µM
[28] = RPMI 5 mM glucose + 10% dialyzed FBS, 0.19 µM
[29] = RPMI 5 mM glucose + 10% dialyzed FBS, 0.569 µM
[30] = RPMI 5 mM glucose + 10% dialyzed FBS, 1.71 µM
[31] = RPMI 5 mM glucose + 10% dialyzed FBS, 5.12 µM
[32] = RPMI 5 mM glucose + 10% dialyzed FBS, 15.4 µM
[33] = RPMI 5 mM glucose + 10% dialyzed FBS, 46.1 µM

Row | Structure (SMILES) | cell viability [1] [%] | cell viability [2] [%] | cell viability [3] [%] | cell viability [4] [%] | cell viability [5] [%] | cell viability [6] [%] | cell viability [7] [%] | cell viability [8] [%] | cell viability [9] [%] | cell viability [10] [%] | cell viability [11] [%] | cell viability [12] [%] | cell viability [13] [%] | cell viability [14] [%] | cell viability [15] [%] | cell viability [16] [%] | cell viability [17] [%] | cell viability [18] [%] | cell viability [19] [%] | cell viability [20] [%] | cell viability [21] [%] | cell viability [22] [%] | cell viability [23] [%] | cell viability [24] [%] | cell viability [25] [%] | cell viability [26] [%] | cell viability [27] [%] | cell viability [28] [%] | cell viability [29] [%] | cell viability [30] [%] | cell viability [31] [%] | cell viability [32] [%] | cell viability [33] [%]
1 | CCC[S+](=O)([O-])Nc1ccc(F)c(C(=O)c2c[nH]c3ncc(-c4ccc(Cl)cc4)cc23)c1F | 116 | 110 | 107 | 115 | 114 | 107 | 108 | 105 | 99.9 | 98.5 | 93.5 | 116 | 109 | 117 | 110 | 118 | 110 | 99.1 | 110 | 108 | 96.4 | 98.2 | 124 | 120 | 122 | 120 | 125 | 120 | 113 | 107 | 108 | 103 | 95.2
2 | NC(=O)[C@@H](CCC(F)(F)F)N(Cc1ccc(-c2ncon2)cc1F)[S+](=O)([O-])c1ccc(Cl)cc1 | 105 | 98.7 | 98.7 | 103 | 92.4 | 96.2 | 96.1 | 89.4 | 87.1 | 80 | 5.81 | 92.4 | 95 | 84.6 | 101 | 100 | 88.8 | 86.3 | 90.3 | 81.6 | 80.9 | 58 | 94.6 | 88.2 | 96.5 | 92.3 | 92.8 | 87.3 | 81.7 | 84.8 | 83.8 | 84.2 | 6.79
3 | N[C@@H](Cc1cc(I)c(Oc2cc(I)c(O)c(I)c2)c(I)c1)C(=O)O | 118 | 116 | 106 | 113 | 113 | 103 | 106 | 109 | 106 | 101 | 98.6 | 126 | 120 | 121 | 113 | 123 | 124 | 122 | 107 | 112 | 114 | 104 | 111 | 107 | 108 | 109 | 109 | 114 | 103 | 111 | 104 | 103 | 101
4 | O=C(O)CCCc1ccc(N(CCCl)CCCl)cc1 | 117 | 116 | 118 | 122 | 125 | 122 | 125 | 126 | 123 | 123 | 20.4 |  |  |  |  |  |  |  |  |  |  |  |  |  |  |  |  |  |  |  |  |  | 
5 | CC1CCN(c2cc(N3CCN(C)CC3)ccc2NC(=O)c2cc(C#N)c[nH]2)CC1 |  |  |  |  |  |  |  |  |  |  |  |  |  |  |  |  |  |  |  |  |  |  | 124 | 119 | 122 | 126 | 133 | 119 | 115 | 121 | 106 | 106 | 99.9
6 | CCc1nc(C(N)=O)c(Nc2ccc(N3CCC(N4CCN(C)CC4)CC3)c(OC)c2)nc1NC1CCOCC1 | 106 | 103 | 111 | 111 | 114 | 97.4 | 97.7 | 102 | 91.7 | 75.1 | 52.6 | 103 | 101 | 109 | 117 | 112 | 100 | 98.7 | 102 | 88.9 | 71.1 | 52.3 | 110 | 109 | 123 | 111 | 131 | 104 | 108 | 110 | 94.8 | 75.9 | 42.1
7 | CC=CC1=C(C(=O)O)N2C(=O)[C@@H](NC(=O)[C@H](N)c3ccc(O)cc3)[C@H]2SC1.O | 97.8 | 110 | 121 | 105 | 126 | 90 | 116 | 111 | 113 | 13.8 | 15 | 88.6 | 103 | 111 | 109 | 120 | 115 | 104 | 112 | 107 | 17.7 | 13.7 | 100 | 108 | 107 | 113 | 118 | 109 | 110 | 116 | 114 | 45.3 | 18.8
8 | COC1=C(CC=C(C)C)C2=C(\C=C/C(=O)O2)C=C1 | 84.2 | 109 | 126 | 121 | 110 | 114 | 97.7 | 87.5 | 69.8 | 65.7 | 58.8 | 96.9 | 96.6 | 116 | 116 | 106 | 104 | 107 | 105 | 80.1 | 81.9 | 54.7 | 101 | 123 | 109 | 112 | 112 | 109 | 98.1 | 92.4 | 75.2 | 76.3 | 55.7
9 | CN1C(=O)C(=C/2N(C(=O)N(C3CC3)C(=O)C2=C1/NC4=CC=C(I)C=C4F)C5=CC=CC(=C5)NC(C)=O)\C | 121 | 130 | 122 | 123 | 113 | 112 | 101 | 90.9 | 12.8 | 4.68 | 4.28 |  |  |  |  |  |  |  |  |  |  |  |  |  |  |  |  |  |  |  |  |  | 
10 | CC(=O)[C@H]1CC[C@H]2[C@@H]3C/C=C4/C[C@@H](O)CC[C@]4(C)[C@H]3CC[C@]12C | 120 | 124 | 114 | 116 | 112 | 120 | 124 | 115 | 114 | 114 | 110 |  |  |  |  |  |  |  |  |  |  |  | 112 | 120 | 129 | 112 | 124 | 115 | 126 | 125 | 112 | 104 | 103
11 | CC[C@@H](C)[C@H](NC(=O)[C@H](CC1CCCCC1)NC(=O)c1ccno1)C(=O)N1CCC2(CCc3ccccc32)CC1 | 94 | 89.4 | 92.7 | 88.9 | 95 | 94.1 | 75.8 | 80.8 | 89.2 | 78.9 | 83.3 | 79 | 81.5 | 101 | 88.7 | 89.8 | 85.9 | 64.5 | 71.9 | 99.8 | 70.1 | 74.6 | 84.3 | 89.3 | 83.2 | 81.4 | 77.1 | 82.2 | 79.6 | 82 | 84.6 | 76 | 77
12 | NC/1=N/C(=O)C2=C([NH]C=C2CCC3=CC=C(C=C3)C(=O)N[C@@H](CCC(O)=O)C(O)=O)N1 | 106 | 109 | 106 | 107 | 99.8 | 114 | 105 | 64.4 | 35.4 | 29.3 | 28.2 | 102 | 113 | 108 | 107 | 110 | 108 | 96.9 | 90 | 64.5 | 54.9 | 47.5 | 96.5 | 106 | 103 | 103 | 104 | 104 | 99.1 | 88.4 | 56.1 | 48.1 | 44.4
13 | CCN(CCO)CCCC(C)Nc1ccnc2cc(Cl)ccc12 (centres undefined) | 99.5 | 114 | 114 | 111 | 110 | 105 | 75.6 | 112 | 57.5 | 14.7 | 9.45 | 102 | 110 | 110 | 103 | 108 | 106 | 74.6 | 105 | 66.2 | 27.3 | 10.7 | 102 | 108 | 106 | 117 | 112 | 103 | 90.7 | 102 | 3.75 | 56.4 | 15.4
14 | COc1cc([C@@H]2c3cc4c(cc3[C@H](O)[C@H]3COC(=O)[C@H]23)OCO4)cc(OC)c1OC | 87.8 | 39.1 | 12.4 | 7.37 | 7 | 8.5 | 7.63 | 8.21 | 6.81 | 5.69 | 2.44 | 84.9 | 45.4 | 15.6 | 9.29 | 7.32 | 7.35 | 6.22 | 5.7 | 5.67 | 4.24 | 1.48 | 84 | 41.4 | 19.7 | 11.7 | 6.34 | 8.83 | 7.96 | 7.78 | 7.21 | 5.34 | 2.45
15 | CCCCCCCN(CC)CCCC(O)c1ccc(NS(C)(=O)=O)cc1.CCCCCCCN(CC)CCCC(O)c1ccc(NS(C)(=O)=O)cc1.O=C(O)/C=C/C(=O)O (centres undefined) | 111 | 108 | 116 | 111 | 101 | 125 | 113 | 112 | 112 | 88.9 | 77.7 | 107 | 118 | 113 | 108 | 85.4 | 115 | 116 | 111 | 102 | 89.6 | 69.1 | 100 | 101 | 106 | 113 | 94.8 | 108 | 111 | 113 | 98.9 | 93 | 69.2
16 | CCCC[N+]1(C)[C@@H]2CC(OC(=O)[C@H](CO)c3ccccc3)C[C@H]1[C@@H]1O[C@@H]12 (some centres undefined) | 114 | 121 | 123 | 118 | 116 | 128 | 118 | 95.2 | 104 | 103 | 110 |  |  |  |  |  |  |  |  |  |  |  |  |  |  |  |  |  |  |  |  |  | 
